In patent publication US10357477B2, “Anticancer compounds” (REGENTS OF THE UNIVERSITY OF MINNESOTA, priority 2016, dated 2019):

System: MIA PaCa-2 cells
Assay: Cell viability assay (MTT) in MIA PaCa-2 cells
Assay type: cell-based
Conditions: Homo sapiens, antiproliferative activity, 72 h
Protocol: MIA PaCa-2 cells (CRL-1420, ATCC) were maintained in DMEM media supplemented with 10% FBS, 2.5% HS, 1% GlutaMAX, 1% sodium pyruvate, 100 U/mL penicillin, and 100 μg/mL streptomycin. Cell culture media and additives were purchased from Gibco. Cells were plated in 96-well plates at |1−2.5|×10^4 cells per well in the DMEM growth media. One microliter of a 2-fold serially diluted compound solution in DMSO (Sigma) starting at 20 mM (100 μM final concentration) was added to each well. The final volume in each well was 200 μL, yielding a final DMSO concentration of 0.5%. Control wells contained 0.5% DMSO (100% viability) or 25% DMSO (background) and all reactions were done in triplicate. The plate was incubated for 72 h at 37° C. in a 5% CO2/95% air humidified atmosphere.
Measurement of cell viability was carried out using a modified method of Mosmann based on 3-(4,5-dimethylthiazol-2-yl)-2,5-diphenyltetrazolium bromide (MTT, Sigma). MTT solution was prepared fresh at 1 mg/mL in serum-free and phenol red-free RPMI 1640 media. After 200 μL of MTT solution was added to each well, the plate was incubated as described above for 3 h. The MTT solution was removed, and the formazan crystals were solubilized with 200 μL of isopropanol. The plate was read on a SpectraMax i3 spectrophotometer (Molecular Devices) at 570 nm for formazan and 650 nm for background subtraction. EC50 values were calculated by fitting the data in GraphPad Prism software. EC50 values were determined in triplicate.

| EC50 | Structure (SMILES) |
| --- | --- |
| 4.6 µM | CNC(=O)c1cccc(Cn2nc(C)c(NC(=O)c3ccc(Oc4ccc(C(F)(F)F)cc4)cc3)c2C)c1 [Compound E6b, 3-((3,5-Dimethyl-4-(4-(4-(trifluoromethyl)phenoxy)-benzamido)-1H-pyrazol-1-yl)methyl)-N-methylbenzamide] |
| 17 µM | CNC(=O)c1cccc(Cn2nc(C)c(NC(=O)c3ccc(CNc4ccccc4)cc3)c2C)c1 [Compound C2, 3-((3,5-Dimethyl-4-(4-((phenylamino)methyl)benzamido)-1H-pyrazol-1-yl)methyl)-N-methylbenzamide] |
| 6.4 µM | Cc1nn(Cc2cccc(C(=O)Nc3ccccc3)c2)c(C)c1NC(=O)c1ccc(COc2ccccc2)cc1 [Compound A4d, 3-((3,5-Dimethyl-4-(4-(phenoxymethyl)benzamido)-1H-pyrazol-1-yl)methyl)-N-phenylbenzamide] |
| 10 µM | Cc1nn(Cc2ccccc2)c(C)c1NC(=O)c1ccc(COc2ccccc2)cc1 [Compound A1, N-(1-Benzyl-3,5-dimethyl-1H-pyrazol-4-yl)-4-(phenoxymethyl)benzamide] |
| 9.1 µM | CNC(=O)c1cccc(Cn2nc(C)c(NC(=O)c3ccc(COc4ccc5ccccc5c4)cc3)c2C)c1 [Compound D1, 3-((3,5-Dimethyl-4-(4-((naphthalen-2-yloxy)methyl)benzamido)-1H-pyrazol-1-yl)methyl)-N-methylbenzamide] |
| 10 µM | CNC(=O)c1cccc(Cn2nc(C)c(NC(=O)c3ccc(COc4cccc([N+](=O)[O-])c4)cc3)c2C)c1 [Compound D8b, 3-((3,5-Dimethyl-4-(4-((3-nitrophenoxy)methyl)benzamido)-1H-pyrazol-1-yl)methyl)-N-methylbenzamide] |
| 2.6 µM | CC(=O)Nc1ccccc1Cn1nc(C)c(NC(=O)c2ccc(COc3ccccc3)cc2)c1C [Compound A7c, N-(1-(2-Acetamidobenzyl)-3,5-dimethyl-1H-pyrazol-4-yl)-4-(phenoxymethyl)benzamide] |
| 10 µM | CNC(=O)c1cccc(Cn2nc(C)c(NC(=O)c3ccc(COc4cccc(C#N)c4)cc3)c2C)c1 [Compound D7b, 3-((4-(4-((3-Cyanophenoxy)methyl)benzamido)-3,5-dimethyl-1H-pyrazol-1-yl)methyl)-N-methylbenzamide] |
| 25 µM | CNC(=O)c1cccc(Cn2nc(C)c(NS(=O)(=O)c3ccc(COc4ccccc4)cc3)c2C)c1 [Compound B3, 3-((3,5-Dimethyl-4-((4-(phenoxymethyl)phenyl)sulfonamido)-1H-pyrazol-1-yl)methyl)-N-methylbenzamide] |
| 9.7 µM | CNC(=O)c1cccc(Cn2nc(C)c(NC(=O)c3ccc(COc4ccc([N+](=O)[O-])cc4)cc3)c2C)c1 [Compound D8c, 3-((3,5-Dimethyl-4-(4-((4-nitrophenoxy)methyl)benzamido)-1H-pyrazol-1-yl)methyl)-N-methylbenzamide] |
| 1.2 µM | CNC(=O)c1cccc(Cn2nc(C)c(NC(=O)c3ccc(Oc4ccc(C(F)(F)F)cc4C)cc3)c2C)c1 [Compound E6c, 3-((3,5-Dimethyl-4-(4-(2-methyl-4-(trifluoromethyl)phenoxy)benzamido)-1H-pyrazol-1-yl)methyl)-N-methylbenzamide] |
| 4 µM | CNC(=O)c1cc(C(C)n2nc(C)c(NC(=O)c3ccc(COc4ccc(C(F)(F)F)cc4C)cc3)c2C)ccn1 (stereo not shown) [Compound F4, 4-(1-(3,5-Dimethyl-4-(4-((2-methyl-4-(trifluoromethyl)phenoxy)methyl)benzamido)-1H-pyrazol-1-yl)ethyl)-N-methylpicolinamide] |
| 8.3 µM | CNC(=O)c1cccc(Cn2nc(C)c(NC(=O)c3ccc(CSc4ccccc4)cc3)c2C)c1 [Compound C1, 3-((3,5-Dimethyl-4-(4-((phenylthio)methyl)benzamido)-1H-pyrazol-1-yl)methyl)-N-methylbenzamide] |
| 32 µM | CNC(=O)c1cccc(Cn2nc(C)c(NC(=O)c3cccc(COc4ccccc4)c3)c2C)c1 [Compound C6, N-(3,5-Dimethyl-1-(3-(methylcarbamoyl)benzyl)-1H-pyrazol-4-yl)-3-(phenoxymethyl)benzamide] |
| > 100 µM | CNC(=O)c1cccc(Cn2nc(C)c(NC(=O)c3ccc(COc4ccccn4)cc3)c2C)c1 [Compound G1, 3-((3,5-Dimethyl-4-(4-((pyridin-2-yloxy)methyl)benzamido)-1H-pyrazol-1-yl)methyl)-N-methylbenzamide] |
| 6.7 µM | CNC(=O)c1cccc(Cn2nc(C)c(NC(=O)c3ccc(COc4ccc(C(F)(F)F)cc4C)nc3)c2C)c1 [Compound E5a, N-(3,5-Dimethyl-1-(3-(methylcarbamoyl)benzyl)-1H-pyrazol-4-yl)-6-((2-methyl-4-(trifluoromethyl)phenoxy)methyl)nicotinamide] |
| 99 µM | CNC(=O)c1cccc(Cn2nc(C)c(NC(=O)c3ccc(COc4ccncc4)cc3)c2C)c1 [Compound G3, 3-((3,5-Dimethyl-4-(4-((pyridin-4-yloxy)methyl)benzamido)-1H-pyrazol-1-yl)methyl)-N-methylbenzamide] |
| 8.1 µM | CNC(=O)c1cc(Cn2nc(C)c(NC(=O)c3ccc(Oc4ccc(C(F)(F)F)cc4)cc3)c2C)ccn1 [Compound E7a, 4-((3,5-Dimethyl-4-(4-(4-(trifluoromethyl)phenoxy)-benzamido)-1H-pyrazol-1-yl)methyl)-N-methylpicolinamide] |
| 2.4 µM | CNC(=O)c1cccc(C(C)n2nc(C)c(NC(=O)c3ccc(COc4ccc(C(F)(F)F)cc4C)cc3)c2C)c1 (stereo not shown) [Compound F3, 3-(1-(3,5-Dimethyl-4-(4-((2-methyl-4-(trifluoromethyl)phenoxy)methyl)benzamido)-1H-pyrazol-1-yl)ethyl)-N-methylbenzamide] |
| 22 µM | CNC(=O)c1cccc(Cn2nc(C)c(NC(=O)c3ccc(C(C)Oc4ccccc4)cc3)c2C)c1 (stereo not shown) [Compound F1, 3-((3,5-Dimethyl-4-(4-(1-phenoxyethyl)benzamido)-1H-pyrazol-1-yl)methyl)-N-methylbenzamide] |
| 8.4 µM | CNC(=O)c1cccc(Cn2nc(C)c(NC(=O)c3ccc(Oc4ccccc4)cc3)c2C)c1 [Compound E6a, 3-((3,5-Dimethyl-4-(4-phenoxybenzamido)-1H-pyrazol-1-yl)methyl)-N-methylbenzamide] |
| 6.1 µM | CNC(=O)c1cccc(Cn2nc(C)c(NCc3ccc(COc4ccccc4)cc3)c2C)c1 [Compound B2, 3-((3,5-Dimethyl-4-((4-(phenoxymethyl)benzyl)amino)-1H-pyrazol-1-yl)methyl)-N-methylbenzamide] |
| 7.7 µM | CNC(=O)c1cccc(C(C)n2nc(C)c(NC(=O)c3ccc(COc4ccccc4)cc3)c2C)c1 (stereo not shown) [Compound F2, 3-(1-(3,5-Dimethyl-4-(4-(phenoxymethyl)benzamido)-1H-pyrazol-1-yl)ethyl)-N-methylbenzamide] |
| 24 µM | CNC(=O)c1cccc(Cn2nc(C)c(NC(=O)c3ccc(COc4cccnc4)cc3)c2C)c1 [Compound G2, 3-((3,5-Dimethyl-4-(4-((pyridin-3-yloxy)methyl)benzamido)-1H-pyrazol-1-yl)methyl)-N-methylbenzamide] |
| 17 µM | CNC(=O)c1cccc(Cn2nc(C)c(N(C)C(=O)c3ccc(COc4ccccc4)cc3)c2C)c1 [Compound B1, N-(3,5-Dimethyl-1-(3-(methylcarbamoyl)benzyl)-1H-pyrazol-4-yl)-N-methyl-4-(phenoxymethyl)benzamide] |
| 11 µM | CNC(=O)c1cccc(Cn2nc(C)c(NC(=O)c3ccc(COc4ccccc4[N+](=O)[O-])cc3)c2C)c1 [Compound D8a, 3-((3,5-Dimethyl-4-(4-((2-nitrophenoxy)methyl)benzamido)-1H-pyrazol-1-yl)methyl)-N-methylbenzamide] |
| 14 µM | CNC(=O)c1cccc(Cn2nc(C)c(NC(=O)c3ccc(COC4CCCCC4)cc3)c2C)c1 [Compound C7, 3-((4-(4-((Cyclohexyloxy)methyl)benzamido)-3,5-dimethyl-1H-pyrazol-1-yl)methyl)-N-methylbenzamide] |
| 10 µM | CNC(=O)c1cc(Cn2nc(C)c(NC(=O)c3ccc(Oc4ccc(C(F)(F)F)cc4C)cc3)c2C)ccn1 [Compound E7b, 4-((3,5-Dimethyl-4-(4-(2-methyl-4-(trifluoromethyl)phenoxy)-benzamido)-1H-pyrazol-1-yl)methyl)-N-methylpicolinamide] |
| 9.4 µM | CNC(=O)c1cc(Cn2nc(C)c(NC(=O)c3ccc(COc4ccc(C(F)(F)F)cc4C)nc3)c2C)ccn1 [Compound E5b, 4-((3,5-Dimethyl-4-(6-((2-methyl-4-(trifluoromethyl)phenoxy)methyl)nicotinamido)-1H-pyrazol-1-yl)methyl)-N-methylpicolinamide] |

System: Panc-1 cells
Assay: Cell viability assay (MTT) in Panc-1 cells
Assay type: cell-based
Conditions: Homo sapiens, antiproliferative activity, 72 h
Protocol: Panc-1 cells are maintained in RPMI 1640 (Invitrogen 11875) media supplemented with 10% FBS, 1% Penicillin/Streptomycin and 1% Glutamax-1. Cells were plated in 96-well plates at 25×10^4 cells/ml. After 24 hours, compounds were added at 9, 3× dilutions in triplicate from 100 uM final concentration in the appropriate growth media. Plates were incubated for 72 hours at 37° C. in a 5% CO2/95% air humidified atmosphere after which time the media was removed and MTT was added in RPMI phenol red free media. The MTT was removed after 3 hours and formazan crystals were solubilized with 200 μL of isopropanol. Plates were read on a Molecular Devices SpectraMax i3 spectrophotometer at 570 nm for formazan and 690 nm for background subtraction. EC50 values were calculated by fitting the data in GraphPad Prism software.

| EC50 | Structure (SMILES) |
| --- | --- |
| 9 µM | Cc1nn(Cc2ccccc2)c(C)c1NC(=O)c1ccc(COc2ccccc2)cc1 [Compound A1, N-(1-Benzyl-3,5-dimethyl-1H-pyrazol-4-yl)-4-(phenoxymethyl)benzamide] |
| 31 µM | CC(=O)Nc1ccccc1Cn1nc(C)c(NC(=O)c2ccc(COc3ccccc3)cc2)c1C [Compound A7c, N-(1-(2-Acetamidobenzyl)-3,5-dimethyl-1H-pyrazol-4-yl)-4-(phenoxymethyl)benzamide] |
